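How tested: cells in 96-well plates exposed to compound for 48 hours at five concentrations. GI50 marks 50% less growth. TGI is the concentration that stops growth completely.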
Assays:
Test in all cases: DTP human tumour cell line panel, 48 h
U251 CNS = tested on: U251 CNS
MDA-MB-231 breast = tested on: MDA-MB-231 breast
UACC-257 melanoma = tested on: UACC-257 melanoma
HOP-92 NSCLC = tested on: HOP-92 NSCLC
KM12 colon = tested on: KM12 colon
NCI-H226 lung = tested on: NCI-H226 lung
K-562 leukemia = tested on: K-562 leukemia
NCI-H522 lung = tested on: NCI-H522 lung
BT-549 breast = tested on: BT-549 breast
ACHN renal = tested on: ACHN renal
SK-MEL-2 melanoma = tested on: SK-MEL-2 melanoma
MOLT-4 leukemia = tested on: MOLT-4 leukemia
M14 melanoma = tested on: M14 melanoma
LOX IMVI melanoma = tested on: LOX IMVI melanoma
COLO 205 colon = tested on: COLO 205 colon
MCF7 breast = tested on: MCF7 breast
OVCAR-3 ovarian = tested on: OVCAR-3 ovarian
HS 578T breast = tested on: HS 578T breast
UACC-62 melanoma = tested on: UACC-62 melanoma
SW-620 colon = tested on: SW-620 colon
786-0 renal = tested on: 786-0 renal
RXF 393 renal = tested on: RXF 393 renal
HCC-2998 colon = tested on: HCC-2998 colon
OVCAR-5 ovarian = tested on: OVCAR-5 ovarian
HT29 colon = tested on: HT29 colon
HL-60(TB) leukemia = tested on: HL-60(TB) leukemia
A498 renal = tested on: A498 renal
SNB-75 CNS = tested on: SNB-75 CNS
EKVX NSCLC = tested on: EKVX NSCLC
SK-MEL-28 melanoma = tested on: SK-MEL-28 melanoma
HCT-116 colon = tested on: HCT-116 colon
MDA-MB-435 = tested on: MDA-MB-435
SN12C renal = tested on: SN12C renal
SF-539 CNS = tested on: SF-539 CNS
SR leukemia = tested on: SR leukemia
T-47D breast = tested on: T-47D breast
HOP-62 NSCLC = tested on: HOP-62 NSCLC
A549 NSCLC = tested on: A549 NSCLC
OVCAR-4 ovarian = tested on: OVCAR-4 ovarian
SF-268 CNS = tested on: SF-268 CNS
NCI/ADR-RES ovarian = tested on: NCI/ADR-RES ovarian
UO-31 renal = tested on: UO-31 renal
MALME-3M melanoma = tested on: MALME-3M melanoma
SK-MEL-5 melanoma = tested on: SK-MEL-5 melanoma
SF-295 CNS = tested on: SF-295 CNS
CAKI-1 renal = tested on: CAKI-1 renal
OVCAR-8 ovarian = tested on: OVCAR-8 ovarian
DU-145 prostate = tested on: DU-145 prostate
SK-OV-3 ovarian = tested on: SK-OV-3 ovarian
IGROV1 ovarian = tested on: IGROV1 ovarian
RPMI-8226 leukemia = tested on: RPMI-8226 leukemia
HCT-15 colon = tested on: HCT-15 colon
SNB-19 CNS = tested on: SNB-19 CNS
TK-10 renal = tested on: TK-10 renal

Work on `O=S(=O)(NC1=NCCN1C(=S)SN1CCn2c1nsc2=S)c1ccccc1Cl` yielded a GI50 (U251 CNS) of 21.4 µM, a TGI (U251 CNS) of 46 µM and a GI50 (MDA-MB-231 breast) of 22.5 µM. It also gave a TGI (MDA-MB-231 breast) of 71.1 µM, a GI50 (UACC-257 melanoma) of 31.6 µM and a TGI (UACC-257 melanoma) greater than 100 µM. For the same compound, the GI50 (HOP-92 NSCLC) was 11 µM, the TGI (HOP-92 NSCLC) was 89.7 µM and the GI50 (KM12 colon) was 17 µM. The TGI (KM12 colon) was 42.8 µM, the GI50 (NCI-H226 lung) was 35.7 µM and the TGI (NCI-H226 lung) was greater than 100 µM. For the same compound, the GI50 (K-562 leukemia) was 4.62 µM, the TGI (K-562 leukemia) was 46.3 µM and the GI50 (NCI-H522 lung) was 6.08 µM. For the same compound, the TGI (NCI-H522 lung) was 21.9 µM, the GI50 (BT-549 breast) was 8 µM and the TGI (BT-549 breast) was 36 µM. The GI50 (ACHN renal) was 24.5 µM, the TGI (ACHN renal) was greater than 100 µM and the GI50 (SK-MEL-2 melanoma) was 16.9 µM. It also gave a TGI (SK-MEL-2 melanoma) of 40 µM, a GI50 (MOLT-4 leukemia) of 2.02 µM and a TGI (MOLT-4 leukemia) of 14.1 µM. For the same compound, the GI50 (M14 melanoma) was 12.8 µM, the TGI (M14 melanoma) was 27.1 µM and the GI50 (LOX IMVI melanoma) was 16.5 µM. It also gave a TGI (LOX IMVI melanoma) of 62.9 µM, a GI50 (COLO 205 colon) of 15.1 µM and a TGI (COLO 205 colon) of 55 µM. The GI50 (MCF7 breast) was 11.5 µM, the TGI (MCF7 breast) was greater than 100 µM and the GI50 (OVCAR-3 ovarian) was 3.89 µM. The TGI (OVCAR-3 ovarian) was 17.7 µM, the GI50 (HS 578T breast) was 29.6 µM and the TGI (HS 578T breast) was greater than 100 µM. It also gave a GI50 (UACC-62 melanoma) of 19.3 µM, a TGI (UACC-62 melanoma) of 44.1 µM and a GI50 (SW-620 colon) of 10.4 µM. The TGI (SW-620 colon) was 77.9 µM, the GI50 (786-0 renal) was 16.7 µM and the TGI (786-0 renal) was 39.1 µM. For the same compound, the GI50 (RXF 393 renal) was 4.38 µM, the TGI (RXF 393 renal) was 46.5 µM and the GI50 (HCC-2998 colon) was 15.9 µM. For the same compound, the TGI (HCC-2998 colon) was 29.5 µM, the GI50 (OVCAR-5 ovarian) was 12.2 µM and the TGI (OVCAR-5 ovarian) was 27.7 µM. The GI50 (HT29 colon) was 15.4 µM, the TGI (HT29 colon) was greater than 100 µM and the GI50 (HL-60(TB) leukemia) was 0.342 µM. It also gave a TGI (HL-60(TB) leukemia) of 8.62 µM, a GI50 (A498 renal) of 24.6 µM and a TGI (A498 renal) of 59 µM. The GI50 (SNB-75 CNS) was 13.3 µM, the TGI (SNB-75 CNS) was 55.6 µM and the GI50 (EKVX NSCLC) was 36.6 µM. For the same compound, the TGI (EKVX NSCLC) was greater than 100 µM, the GI50 (SK-MEL-28 melanoma) was 16.1 µM and the TGI (SK-MEL-28 melanoma) was 65.7 µM. For the same compound, the GI50 (HCT-116 colon) was 12.2 µM, the TGI (HCT-116 colon) was 28.2 µM and the GI50 (MDA-MB-435) was 8.67 µM. It also gave a TGI (MDA-MB-435) of 29.2 µM, a GI50 (SN12C renal) of 31.6 µM and a TGI (SN12C renal) greater than 100 µM. For the same compound, the GI50 (SF-539 CNS) was 12.9 µM, the TGI (SF-539 CNS) was 31.5 µM and the GI50 (SR leukemia) was 0.469 µM. The TGI (SR leukemia) was 3.31 µM, the GI50 (T-47D breast) was 17 µM and the TGI (T-47D breast) was greater than 100 µM. The GI50 (HOP-62 NSCLC) was 17.4 µM, the TGI (HOP-62 NSCLC) was 33.9 µM and the GI50 (A549 NSCLC) was 32.5 µM. It also gave a TGI (A549 NSCLC) greater than 100 µM, a GI50 (OVCAR-4 ovarian) of 15.6 µM and a TGI (OVCAR-4 ovarian) greater than 100 µM. The GI50 (SF-268 CNS) was 13.3 µM, the TGI (SF-268 CNS) was 87.6 µM and the GI50 (NCI/ADR-RES ovarian) was 27.7 µM. It also gave a TGI (NCI/ADR-RES ovarian) greater than 100 µM, a GI50 (UO-31 renal) of 26.1 µM and a TGI (UO-31 renal) greater than 100 µM. For the same compound, the GI50 (MALME-3M melanoma) was 12.5 µM, the TGI (MALME-3M melanoma) was 67.5 µM and the GI50 (SK-MEL-5 melanoma) was 15.8 µM. For the same compound, the TGI (SK-MEL-5 melanoma) was 31.1 µM, the GI50 (SF-295 CNS) was 21.4 µM and the TGI (SF-295 CNS) was 61 µM. For the same compound, the GI50 (CAKI-1 renal) was 12.3 µM, the TGI (CAKI-1 renal) was 41.6 µM and the GI50 (OVCAR-8 ovarian) was 28.6 µM. The TGI (OVCAR-8 ovarian) was greater than 100 µM, the GI50 (DU-145 prostate) was 9.15 µM and the TGI (DU-145 prostate) was 53.1 µM. The GI50 (SK-OV-3 ovarian) was 57 µM, the TGI (SK-OV-3 ovarian) was greater than 100 µM and the GI50 (IGROV1 ovarian) was 34.8 µM. For the same compound, the TGI (IGROV1 ovarian) was greater than 100 µM, the GI50 (RPMI-8226 leukemia) was 3.5 µM and the TGI (RPMI-8226 leukemia) was 26.2 µM. The GI50 (HCT-15 colon) was 18.7 µM, the TGI (HCT-15 colon) was 53 µM and the GI50 (SNB-19 CNS) was 41 µM. For the same compound, the TGI (SNB-19 CNS) was greater than 100 µM, the GI50 (TK-10 renal) was 16.3 µM and the TGI (TK-10 renal) was 64.2 µM.
